Measured values published in the SangsterLogP compilation.

Assay: method code SF, from Hansch, C. & Leo, A. (1987). Log P database [Dataset]. Pomona College Medicinal Chemistry Project.
Conditions: not given

Compared with Cc1nn(-c2ccccc2)c(C)c1N=O, c1ccc(-n2cccc2)cc1 is higher in logP: 2.28 for the first, 3.08 for the second.

First: CCOC(=O)C(=Cc1cccc(OCC)c1)C(C)=O
Second: CCOC(=O)/C(=C/c1ccc(OC)c(OC)c1)C(C)=O
The logP of the first is higher: 2.71 for the first, 2.02 for the second.

Compared with CC1CCC(=O)CC1, C[C@]12CCC(=O)C=C1CC[C@@H]1[C@@H]2[C@@H](O)C[C@@]2(C)[C@H]1CC[C@]2(O)C(=O)CO is higher in logP: 1.38 for the first, 1.61 for the second.

First: Cc1cc(COc2ccccc2C(C)C)c(O)c(C(=O)O)c1
Second: CC(=O)Oc1ccccc1C(C)C
The logP of the first is higher: 4.91 for the first, 2.78 for the second.

O=C1c2ccccc2C(=O)N1CCCCBr and CCCCC1OC(=O)c2cc(O)ccc21 (stereo not drawn) are within 0.2 log units of each other in logP: 2.96 for the first, 3.12 for the second.

Compared with CSSC, CCOP(=O)(OCC)Oc1ccc(SC)c(C)c1 is higher in logP: 1.77 for the first, 3.28 for the second.

COC(=O)NS(=O)(=O)c1ccc(N)cc1 and NC(=O)c1ccc(N)cc1 are within 0.2 log units of each other in logP: -0.27 for the first, -0.41 for the second.

CC(=C(C#N)C#N)c1ccccc1 and N#C/C=C/c1ccccc1 are within 0.2 log units of each other in logP: 2.1 for the first, 1.96 for the second.

Going from c1ccc(CSc2nnc[nH]2)cc1 to O=C(Cc1ccccc1)Nc1ccc(Cl)c(Cl)c1, the logP rises from 1.45 to 4.47.

Going from Cc1n[nH]cc1[N+](=O)[O-] to COCC(=O)Nc1ccc(Cl)c(Cl)c1, the logP rises from 0.19 to 2.77.

First: CCCCCCCOC(=O)c1ccc(O)cc1
Second: CCCCCCCCOC(=O)c1cccc(C(=O)OCCCCCCCC)c1
The logP of the first is lower: 4.83 for the first, 5.55 for the second.

CC(=O)Nc1cccs1 and CC(=O)Nc1ccccc1C(F)(F)F are within 0.2 log units of each other in logP: 1.1 for the first, 1.11 for the second.

Compared with O=C(O)CCl, NC(=O)CBr is lower in logP: 0.22 for the first, -0.52 for the second.

Going from CCC(C)NC(=O)C(=Cc1ccccc1)Cc1ccccc1 (stereo not drawn) to ON=C(c1ccccc1)c1ccccc1, the logP falls from 3.99 to 3.2.

First: CNC(=O)Oc1cc(C)c(Cl)cc1C
Second: Cc1ccc(Cl)cc1C
The logP of the first is lower: 2.95 for the first, 3.82 for the second.

First: O=C(CNC(=O)c1ccccc1)Oc1cccc(Cl)c1
Second: NC(=O)c1cccc(OC(=O)CNC(=O)c2ccccc2)c1
The logP of the first is higher: 3.21 for the first, 1.2 for the second.

Compared with Cc1ccc(C=C(C#N)C#N)cc1, CCOC(=O)C(=Cc1ccc(Cl)cc1)C(=O)OCC is higher in logP: 2.4 for the first, 3.96 for the second.

Going from Nc1ccc(I)cc1 to Nc1ccccc1O, the logP falls from 2.34 to 0.57.

CNP(=O)(OC)Oc1cccc(C(C)(C)C)c1 (stereo not drawn) and CCc1ccc(OC(C)=O)cc1 are within 0.2 log units of each other in logP: 2.65 for the first, 2.56 for the second.

Compared with O=[N+]([O-])CCO, CCOCCOC(=O)C(C#N)=C(CC)NCc1ccc([N+](=O)[O-])cc1 is higher in logP: -0.42 for the first, 2.64 for the second.

First: CCC(=O)CCCN(C)c1ccc(S(=O)(=O)N(C)C)cc1
Second: CCOC(=O)C(=Cc1ccccc1F)C(=O)OCC
The logP of the first is lower: 0.71 for the first, 3.04 for the second.

Going from O=c1cn[nH]c2ccccc12 to COc1ccccc1C(=O)c1ccncc1, the logP rises from 0.82 to 1.86.

First: c1cn[nH]n1
Second: O=S1(=O)N=C(C2CCCC2)Nc2ccccc21
The logP of the first is lower: -0.29 for the first, 1.83 for the second.

Going from O=C1Cc2ccccc2CCc2ccccc21 to Nc1ccc(OC(=O)CNC(=O)c2ccccc2)cc1, the logP falls from 2.58 to 1.01.

First: OC(c1ccccc1)C1CCCCN1 (stereo not drawn)
Second: N#Cc1ccc(OC(=O)CNC(=O)c2ccccc2)cc1
The logP of the first is lower: 1.28 for the first, 2.1 for the second.

With CCCCCC1(CC)C(=O)NC(=O)NC1=O the logP was 2.24.

Same assay, conditions: pH 0.7

Molecule O=C1CC(C(=O)O)Oc2ccccc21 (stereo not drawn) has a logD of 1.26.

Same assay, conditions: pH 1.0

Going from O=C(O)CNC(=O)c1ccccc1 to CCc1ccccc1OCC(=O)O, the logD rises from 0.31 to 2.53.

Molecule NS(=O)(=O)c1ccc(C(=O)O)cc1 has a logD of 0.5.

Same assay, conditions: pH 5.9

For CCOc1cc(Oc2ccc(C(F)(F)F)cc2Cl)ccc1[N+](=O)[O-], the logD was 4.7.

Same assay, conditions: pH 7.0

Compared with FC(F)(F)c1ccc2cccnc2c1, CCCOC(=O)c1cccnc1 is lower in logD: 3.02 for the first, 1.94 for the second.

NC(=O)c1ccc(N)nc1 gave a logD of 0.7.

Same assay, conditions: pH 7.4

First: CCn1c(C)c(N(C)C)c(=O)n(-c2ccccc2)c1=O
Second: CCN(CC)c1c(C)n(CC)c(=O)n(-c2ccccc2)c1=O
The logD of the first is lower: 1.8 for the first, 2.2 for the second.

Compared with O=C(CCCN1CCC(n2c(=O)[nH]c3ccccc32)CC1)c1ccc(F)cc1, Cc1c(N2CCOCC2)c(=O)n(-c2ccccc2)c(=O)n1C is lower in logD: 3.91 for the first, 0.69 for the second.

Going from Cc1c(NCC(C)C)c(=O)n(-c2ccccc2)c(=O)n1C to CNN=CCCc1ccccc1, the logD falls from 1.48 to 1.

First: CSc1ccccc1/N=N/N(C)C
Second: O/N=C/CCc1ccccc1
The logD of the first is higher: 3.13 for the first, 1.56 for the second.

With O=c1cn[nH]c(=O)[nH]1 the logD was -1.37.

Same assay, conditions: pH 8.0

For O=C(c1ccccc1)c1cccnc1, the logD was 1.88.

Same assay, conditions: pH 8.9

With NNc1ccccc1 the logD was 1.25.

Same assay, conditions: pH 11.0

Compared with CCN(CC)Cc1cccnc1, CCNCc1cccnc1 is lower in logD: 1.01 for the first, 0.76 for the second.

Compared with c1cncc(CN2CCOCC2)c1, c1cncc(CCN2CCCCC2)c1 is higher in logD: 0.04 for the first, 1.66 for the second.

Same assay, conditions: pH 12.0

Going from CCC[C@@H]1C[C@@H](C(=O)N[C@@H]([C@H]2O[C@H](SC)[C@H](O)[C@@H](O)[C@H]2O)[C@@H](C)O)N(CC)C1 to CCCC1CC(C(=O)NC(C(C)Cl)C2OC(SC)C(O)C(O)C2O)N(CC)C1 (stereo not drawn), the logD rises from 1.02 to 2.51.

Same assay, conditions: pH 13.0

Going from CN(C)CC(O)c1ccccc1 (stereo not drawn) to CCCCOc1cccc(N2C(N)=NC(N)=NC2(C)C)c1, the logD rises from 1.54 to 2.03.
